Source: patent publication US20050032787A1, “Pheny (alkyl)carboxylic acid derivatives and dionic phenylalkylheterocyclic derivatives and their use as medicines with serum glucose and/or serum lipid lowering activity” (priority 2002, published 2005)
Structures can show the parent of a compound that is named as a salt. Marks after values point to notes of the source that are not given here.

Assays:
3T3-L1 cells = assay: Determination of glucose consumption in differentiated 3T3-L1 cells; type: cell-based, mouse; conditions: 22 hours, glucose 25 mM, insulin 0.25 nM, concentrations assayed 1, 5, 10, 25 μM
Procedure: Determination of Glucose Consumption in 3T3-L1 Cells
Glucose consumption was assessed in differentiated 3T3-L1 cells.
Mouse fibroblasts (3T3-L1) were seeded at a density of 5×10^3/cm^2 and cultured on 12-well plates in 1 ml of DMEM containing glucose 25 mM and added with 10% CS, glutamine 4 mM, pyruvate 1 mM, penicillin 50 U/ml, and streptomycin 50 μg/ml, in an atmosphere humidified with 5% CO2 at 37° C.
Two to three days after confluence, differentiation was induced with the addition of 1.5 ml of DMEM containing 3-isobutyl-1-methylxanthine (IBMX) 0.5 mM, dexamethazone 1 μM and porcine insulin 10 μg/ml in glucose 25 mM and 10% FBS.
After 2 days, the cells were exposed to the same medium without IBMX and dexamethazone for another 2 days. […]
The cells were used 10-12 days after induction of differentiation, as monitored by evaluating triglyceride accumulation. […]
The analysis of the glucose in the medium was done with the aid of a Cobas Mira S autoanalyzer (Roche), using the HK 125 Glucose Kit (ABX Diagnostics). The glucose concumprion stimulated by the products was evaluated as % increase compared to the control compound. […]

C57BL/KsJ db/db mice = assay: Antidiabetic and serum lipid lowering activity in db/db mice; conditions: oral twice daily for a fortnight, rosiglitazone 5 mg/kg, Example 22 25 mg/kg, vs control; for Reduction of glucose levels % / Reduction of triglyceride levels %: serum 7 hours after last treatment; for Change in GPT levels % / Change in HDL-cholesterol levels %: serum

Row | Compound | melting point | other results
1 | O=C1NC(=O)C(Cc2cccc(OCCc3ccc(Cl)cc3)c2)S1 (centres unmarked) [Example 47, 5-[3-[2-(4-chlorophenyl)ethoxy]phenylmethyl]thiazolidine-2,4-dione] | 90 to 91 °C | 
2 | CCOC(=O)[C@H](Cc1ccc(OC(=O)NCc2ccc(OC)cc2)cc1)NC(=O)c1ccccc1 | 149 to 151 °C | 
3 | COC(=O)CCc1ccc(OCCn2ccc3ccccc32)cc1 [Example 8, methyl 3-[4-[2-(1-indolyl)ethoxy]phenyl]-propanoate] | 85 °C | 
4 | CN(CCOc1ccc(CC2SC(=O)NC2=O)cc1)c1ccccn1 (centres unmarked) [Rosiglitazone, rosiglitazone, reference compound] |  | lowest concentration of those assayed to induce a 40% increase in glucose consumption (3T3-L1 cells): 5 µM; Reduction of glucose levels % (C57BL/KsJ db/db mice): −36 Δ %; Reduction of triglyceride levels % (C57BL/KsJ db/db mice): −41 ▴ %; Change in GPT levels % (C57BL/KsJ db/db mice): +117 ▴ %; Change in HDL-cholesterol levels % (C57BL/KsJ db/db mice): −7%
5 | COC(=O)C(=Cc1ccc(OCCn2ccc3ccccc32)cc1)C(=O)OC [Example 3, dimethyl 4-[2-(1-indolyl]ethoxy]benzylidenemalonate] | 68 to 70 °C | 
6 | COC(=O)C(Cc1cccc(OCCc2ccc(Cl)cc2)c1)C(=O)OC [Example 22, dimethyl 3-[2-(4-chlorophenyl)ethoxy]-benzylmalonate] |  | lowest concentration of those assayed to induce a 40% increase in glucose consumption (3T3-L1 cells): 1 µM; Weight gain % (C57BL/KsJ db/db mice): +16 ▴ %; Reduction of glucose levels % (C57BL/KsJ db/db mice): −32 Δ %; Reduction of triglyceride levels % (C57BL/KsJ db/db mice): −47 ▴ %; Change in GPT levels % (C57BL/KsJ db/db mice): +38 ▴ %; Change in HDL-cholesterol levels % (C57BL/KsJ db/db mice): +37 ▴ %
7 | COC(=O)Cc1ccc(OCCn2ccc3ccccc32)cc1 [Example 9, methyl 2-[4-[2-(1-indolyl)ethoxy]phenyl]acetate] | 50 to 52 °C | 
8 | O=C1NC(=O)C(Cc2ccc(OCCc3ccc(Cl)cc3)cc2)S1 (centres unmarked) [Example 21, 5-[4-[2-(4-chlorophenyl)ethoxy]phenylmethyl]-thiazolidine-2,4-dione] | 147 to 148 °C | 
9 | O=C1NC(=O)C(=Cc2ccc(OCCc3ccc(Cl)cc3)cc2)S1 [Example 20, 5-[4-[2-(4-chlorophenyl)ethoxy]phenylmethylene]thiazolidine-2,4-dione] | 202 to 203 °C | 
10 | O=C(O)C(Cc1ccc(OCCn2ccc3ccccc32)cc1)C(=O)O [Example 5, 4-[2-(1-indolyl)ethoxy]benzylmalonic acid] | 112 to 114 °C | 
11 | COC(=O)C(O)Cc1ccc(OCCn2ccc3ccccc32)cc1 (centres unmarked) [Example 12, methyl 2-hydroxy-3-[4-[2-(1-indolyl)ethoxy]-phenyl]propanoate] | 70 to 72 °C | 
12 | COC(=O)C(Cc1ccc(OCCc2ccc3ccccc3c2)cc1)C(=O)OC [Example 29, dimethyl 4-[2-(2-naphthyl)ethoxy]benzyl-malonate] | 68.5 °C | 
13 | O=C1NC(=O)C(=Cc2cccc(OCCc3ccc(Cl)cc3)c2)S1 [Example 46, 5-[3-[2-(4-chlorophenyl)ethoxy]phenylmethylene]thiazolidine-2,4-dione] | 186 to 187 °C | 

Second part, led by results:

Row | melting point | Compound | other results
14 | 125 to 127 °C | COC(=O)C(Cc1ccc(OC(=O)Nc2ccc(Cl)cc2)cc1)C(=O)OC | 
15 | 78.6 °C | COC(=O)C(Cc1ccc(OC(=O)NCc2ccc(OC)cc2)cc1)C(=O)OC (as salt: malonate) | 
16 | 90 to 92 °C | CCCCc1ccc(NC(=O)Oc2ccc(CC(C(=O)OC)C(=O)OC)cc2)cc1 | 
17 | 84 °C | COC(=O)C(Cc1ccc(OC(=O)Nc2ccc(Cl)cc2Cl)cc1)C(=O)OC | 
18 | 62 to 64 °C | COC(=O)C(Cc1cccc(OC(=O)NCc2ccc(OC)cc2)c1)C(=O)OC | 
19 | 79 to 80 °C | COC(=O)C(Cc1cccc(OC(=O)Nc2ccc(Cl)cc2)c1)C(=O)OC | 
20 | 128 to 130 °C | COC(=O)C(Cc1ccc(OC(=O)Nc2ccc([N+](=O)[O-])cc2)cc1)C(=O)OC | 
